In paper PMC12040169 (PLOS Biology, 2025):

Experiment: in vitro
Details: human, hela cells, % viability

| Structure (SMILES) | viability at 28.5 h, 10 µM [%] |
| --- | --- |
| COc1ccccc1NC(=O)C(=O)N/N=C/c1ccc(C(=O)O)cc1 [CBK262148] | 93.8 |
| Cc1cc(C=O)c(O)c(/C=N/CC/N=C/c2cc(C)cc(C=O)c2O)c1 [CBK262149] | 95.6 |
| O=C(Nc1ccncc1)OCCNC(=O)c1ccncc1 [CBK262150] | 102 |
| O=C(Cc1ccc([N+](=O)[O-])cc1)N/N=C/c1ccc(O)cc1 [CBK262152] | 84.5 |
| CN(CCN(C)/N=C/c1cccc2ccccc12)/N=C/c1cccc2ccccc12 [CBK262153] | 107 |
| COc1ccc(-c2ccc(/C=N/NC(=O)c3ccncc3)o2)c([N+](=O)[O-])c1 [CBK262156] | 97.3 |
| c1ccc2c(CNCc3ccc4c(c3)OCO4)c[nH]c2c1 [CBK262159] | 89.5 |
| NC(=O)c1c(NC(=O)COc2ccc(Cl)cc2)sc2c1CCC2 [CBK262163] | 91 |
| O=C(O)CN1C(=O)c2ccc(C(=O)c3ccc4c(c3)C(=O)N(CC(=O)O)C4=O)cc2C1=O [CBK262166] | 82.3 |
| OCCn1c(-c2ccc(Br)cc2)cn2c3ccccc3nc12 [CBK262167] | 95.2 |
| COc1ccccc1CNCc1ccccc1OC [CBK262168] | 106 |
| COc1cc(/C=N/NC(=O)c2cccc([N+](=O)[O-])c2)cc(OC)c1O [CBK262172] | 83.1 |
| Cc1cccnc1NC(=O)COc1ccc(Cl)cc1 [CBK262175] | 106 |
| O=C(N/N=C/c1cc2c(cc1Cl)OCO2)C(O)c1ccccc1 (stereo not drawn) [CBK262177] | 112 |
| O=C(N/N=C/c1ccc(OC(=O)c2cccs2)cc1)c1ccccn1 [CBK262178] | 107 |
| c1ccc(-c2n[nH]c(-c3ccncc3)c2-c2nc3ccccc3[nH]2)cc1 [CBK262180] | 88 |
| COC(=O)Nc1ccc(S(=O)(=O)Oc2ccc(C)cc2-n2nc3ccccc3n2)cc1 [CBK262183] | 89.3 |
| O=C(N/N=C/c1ccc(O)cc1)c1c[nH]c2ccccc12 [CBK262193] | 91.4 |
| COc1cc(CNC2CCCCCC2)c([N+](=O)[O-])cc1OC [CBK262194] | 96.4 |
| O=C1c2ccc(Oc3ccc(Oc4ccc5c(c4)C(=O)N(c4cccnc4)C5=O)cc3)cc2C(=O)N1c1cccnc1 [CBK262195] | 95.7 |
| COc1c(O)ccc(/C=N/NC(=O)c2cccnc2)c1[N+](=O)[O-] [CBK262197] | 112 |

| Structure (SMILES) | viability at 28.5 h, 10 µM [%] |
| --- | --- |
| O=[N+]([O-])c1cc(/C=N/Nc2nnn[nH]2)ccc1N1CCOCC1 [CBK262199] | 99.7 |
| CC(C)(C)c1cc(C(=O)NCC(=O)NCC(=O)O)cc(C(C)(C)C)c1 [CBK262200] | 96 |
| Cc1ccc(S(=O)(=O)c2cccc(S(=O)(=O)N3CCCCC3)c2)cc1S(=O)(=O)N1CCCCC1 [CBK262207] | 105 |
| Cc1ccc(S(=O)(=O)NCC(Oc2ccc([N+](=O)[O-])cc2)c2ccccc2)cc1 (stereo not drawn) [CBK262208] | 101 |
| O=C(CC(Nc1ccc2ccccc2c1)c1ccncc1)c1ccc(Br)cc1 (stereo not drawn) [CBK262209] | 98.7 |
| O=C(COc1ccc(-c2ccccc2)cc1)N/N=C/c1ccncc1 [CBK262210] | 93.2 |
| O=C(COc1ccc(I)cc1)N/N=C/c1cccc([N+](=O)[O-])c1 [CBK262211] | 95.2 |
| Cc1ccc(C(CC(=O)N2CCN(Cc3ccccc3)CC2)c2ccccc2)c(O)c1C (stereo not drawn) [CBK262214] | 100 |
| O=C(c1sc2ccccc2c1Cl)n1cnc2ccccc21 [CBK262216] | 101 |
| Cc1[nH]c2ccccc2c1/C=C1/SC(=S)N(CC(=O)O)C1=O [CBK262220] | 118 |
| Cc1cc(N(C)CCc2ccccc2)nc2cc(Cl)ccc12 [CBK262221] | 93.9 |
| O=C1CCC(=O)N1CC(O)Cn1c2ccc(Cl)cc2c2cc(Cl)ccc21 (stereo not drawn) [CBK262222] | 90.5 |
| O=C(NNc1nc(-c2ccccc2)cc(-c2ccccc2)n1)Nc1ccccc1 [CBK262223] | 91.3 |
| O=C(O)/C(=N\c1cccc2ccccc12)c1ccccc1 [CBK262224] | 75.7 |
| Cc1ccc(/C=N/NC(=O)C(C)Oc2ccccc2Br)o1 (stereo not drawn) [CBK262226] | 103 |
| Cc1ccc(COc2ccc(/C=N/NC(=O)CN3CCCCC3)cc2)cc1 [CBK262227] | 103 |
| C/C(=N\NC(=O)CN(c1ccc(C)cc1)S(=O)(=O)c1ccccc1)c1ccc(Cl)cc1 [CBK262229] | 93.3 |
| Cc1cc(OCCCNCCO)ccc1Cl [CBK262230] | 95.4 |
| COc1cc(/C=N/NC(=O)c2cccnc2)cc([N+](=O)[O-])c1O [CBK262233] | 86.4 |
| CCC(Oc1ccccc1)C(=O)Nc1cc(OC)c(Cl)cc1OC (stereo not drawn) [CBK262235] | 112 |
| COc1ccc(N(CC(=O)Nc2cccnc2)S(=O)(=O)c2ccccc2)cc1 [CBK262236] | 91.6 |

| Structure (SMILES) | viability at 28.5 h, 10 µM [%] |
| --- | --- |
| COc1ccc(/C=C/C(C)=C\C(=O)O)c(OC)c1 [CBK262237N] | 94.8 |
| Nc1nc2ccccc2n1/N=C/c1ccc([N+](=O)[O-])cc1 [CBK262239] | 88 |
| O=C(COc1ccccc1O)NCCN1CCOCC1 [CBK262243C] | 84 |
| O=C1C2(c3ccccc3)CN3CN(C2)CC1(c1ccccc1)C3 [CBK262245] | 93.5 |
| CN1CCN(S(=O)(=O)c2ccc(Oc3ccc([N+](=O)[O-])cc3)cc2)CC1 [CBK262248] | 105 |
| COc1cc(/C=N/Nc2nnn[nH]2)cc2c1OCO2 [CBK262253] | 100 |
| Cn1c2ccccc2c2cc(C(O)(CC(=O)CC(O)(c3ccc4c(c3)c3ccccc3n4C)C(F)(F)F)C(F)(F)F)ccc21 (stereo not drawn) [CBK262254] | 88 |
| Cc1ccc(S(=O)(=O)N2CCOCC2)cc1C(=O)O [CBK262256] | 115 |
| CCCCn1c(=O)c(C(=O)Nc2ccccc2S(N)(=O)=O)c(O)c2ccccc21 [CBK262260] | 98.6 |
| COc1ccccc1CNCc1ccccn1 [CBK262261] | 89.4 |
| O=C(O)/C=C/c1cccc(NS(=O)(=O)c2ccc(C(=O)O)cc2)c1 [CBK262262] | 88 |
| C/C(=N/OCC(=O)N/N=C/c1sc2ccccc2c1O)c1ccccc1 [CBK262266] | 96.3 |
| Cn1c(=O)c(C(=O)Nc2ccccc2S(N)(=O)=O)c(O)c2ccccc21 [CBK262267] | 85.5 |
| COc1cccc(/C=N/NC(=O)C(=O)NCc2ccccn2)c1 [CBK262268] | 84.5 |
| Cc1cc2nc(NC(=N)N)nc(C)c2cc1C [CBK262269] | 83.8 |
| CCOC(=O)c1ccccc1NS(C)(=O)=O [CBK262271] | 101 |
| Cc1ccccc1C(=O)NC(NCC1CCCO1)C(Cl)(Cl)Cl (stereo not drawn) [CBK262273] | 91.9 |
| COc1ccc(C(=O)/C=C/c2ccc(N3N=C(c4ccccc4)CC3c3ccccc3)cc2)cc1 (stereo not drawn) [CBK262274] | 91.7 |
| O=C(Nc1nnn[nH]1)C12CC3CC(CC(C3)C1)C2 [CBK262276] | 82.4 |
| COc1cc(/C=N/NC(=O)c2ccncc2)ccc1OC(=O)c1cccs1 [CBK262278] | 103 |
| COc1ccc(C(=O)NC(NCc2ccco2)C(Cl)(Cl)Cl)cc1 (stereo not drawn) [CBK262279] | 119 |
